Data on four molecules can be found in patent US8153648B2, “Solid and crystalline dutasteride and processes for preparation thereof” (Gador S.A., priority 2008, dated 2012).

Series [1] in a line: intrinsic dissolving speed (VDI) study. The format is physicochemical. The settings on record: for change of crystalline or polymorphous structure during the dissolving assay: SDS 2% in hydrochloric acid 0.1N 225 ml, detected in the study chart. As for the experimental part:
These study has been carried out using Lauril Sodium Sulphate SDS 2% in hydrochloric acid 0.1N 225 ml. as dissolvent. At the established experimental conditions, changes were seen depending on the crystalline or polymorphous structure present.

The nature of series [2]: stability on exposure to different humidity conditions. The format is physicochemical.

Take `C[C@]12C=CC(=O)NC1CCC1C2CC[C@]2(C)C(C(=O)Nc3cc(C(F)(F)F)ccc3C(F)(F)F)CCC12` (stereo partly drawn) [Crystalline Form III of dutasteride, 17β-N-[2,5-bis(trifluoromethyl)phenyl]carbamoyl-4-aza-5-α-androst-1-en-3-one]: in series [1] (Lauril Sodium Sulphate SDS 2% in hydrochloric acid 0.1N 225 ml as dissolvent), the “intrinsic dissolving speed value (VDI)” value is listed as “of the same magnitude of the crystalline forms described in the previous art”.

In the case of `C[C@]12C=CC(=O)NC1CCC1C2CC[C@]2(C)C(C(=O)Nc3cc(C(F)(F)F)ccc3C(F)(F)F)CCC12` (stereo partly drawn) [Crystalline Form II of dutasteride, 17β-N-[2,5-bis(trifluoromethyl)phenyl]carbamoyl-4-aza-5-α-androst-1-en-3-one], in series [2] (66% and 75% HR, 60-day period), the “changes in the solid Form with XR study” value is given as “No changes were observed” and the “stability when exposed to humidity” value is on record as “stable”. The “water content (KF), final sample” value in series [2] (after 60 days at 66% and 75% HR) was 2.1. Further, the “water content (KF), initial sample” value in series [2] (before humidity exposure) was found to be 1.9. Moreover, the “change of crystalline or polymorphous structure during the dissolving assay” value in series [1] was “did not show any changes”.

For `C[C@]12C=CC(=O)NC1CCC1C2CC[C@]2(C)C(C(=O)Nc3cc(C(F)(F)F)ccc3C(F)(F)F)CCC12` (stereo partly drawn) [amorphous Form, 17β-N-[2,5-bis(trifluoromethyl)phenyl]carbamoyl-4-aza-5-α-androst-1-en-3-one], the “change of crystalline or polymorphous structure during the dissolving assay” value in series [1] is given as “did not show any changes”.

As to `C[C@]12C=CC(=O)NC1CCC1C2CC[C@]2(C)C(C(=O)Nc3cc(C(F)(F)F)ccc3C(F)(F)F)CCC12` (stereo partly drawn) [Form I, 17β-N-[2,5-bis(trifluoromethyl)phenyl]carbamoyl-4-aza-5-α-androst-1-en-3-one], the “change of crystalline or polymorphous structure during the dissolving assay” value in series [1] was “transformation into Form III”.
